Results on two molecules are retold here after patent US10287308B2, “Compounds, compositions, and methods for the treatment of cancers” (priority 2013, dated 2019).

Where only a bound is given, the exact number is not on record here.

The nature of data set [1]: logP by reverse phase HPLC retention time against a calibration curve. The note with it: chromatographic method, Zorbax Eclipse XDB C8, 30° C.
Data set [2] is described as follows: Maximum tolerated dose used in the mouse PK/PD study. Format: in vivo. Conditions: H460 tumor-bearing mice.
The conditions of data set [3]: H460 tumor-bearing nude mice, intravenous, dosed at MTD as free drug, 24 hour time point, FIG. 2.
Procedure: Animals were inoculated with 5×10^5 H460 small cell lung cancer cells via subcutaneous injection to the flank. Tumors were allowed to reach an approximate volume of ˜500 mm^3. Animals were then randomized into treatment groups of 3 animals per time point and were dosed at the maximum tolerated dose (MTD). The 24 hour time point was used as a benchmark across compounds
Tumor platinum levels were determined by inductively coupled plasma mass spectrometry (ICP-MS). Tumors were excised from animals and dissolved in fuming nitric acid (60% w/w) by adding four parts nitric acid to 1 part tumor w/w and heating overnight at 60 degrees Centigrade. The resulting digest was diluted 1:10 in ICP-MS analysis buffer (1% nitric acid, 2% Triton® x-100), and directly introduced into the ICP-MS unit by peristaltic pump. The end dilution factor for the samples as introduced to the ICP-MS was 50×.

Regarding `CCNC(=O)[O][Pt]([NH2])([NH2])([Cl])([Cl])[O]C(C)=O` [Compound 1], in the data set “physchem”, the chromatographic logP is less than 1.
On to `CCNC(=O)[O][Pt]([NH2])([NH2])([Cl])([Cl])[O]C(=O)NCC` [Compound 5], for which the “Measured LogP” value in data set [1] is listed as less than 1. Also, the “Dose (mg/kg), dosed at the maximum tolerated dose (MTD)” value in data set [2] is given as 30 mg/kg. In data set [3], the “platinum levels in the tumor” value is on record as “higher platinum levels”.

As usually defined, the chromatographic logP is a lipophilicity value derived from retention on a column. Higher therefore signals higher lipophilicity.
